Source: patent publication US5607926A, “Cephalosporin antibiotics” (Microcide Pharmaceuticals, Inc., priority 1995, dated 1997)
≈ marks a conversion by molar mass, not a printed value. Counter-ions that a name gives are not always drawn. Like-named read-outs stand apart in the source and are kept apart here.

What was measured:
Format in all cases: cell-based
[1] = system: S. aureus ATCC 29213; test: In vitro antibacterial evaluation, MIC by agar dilution, S. aureus ATCC 29213; details: Staphylococcus aureus, ATCC29213
Experimental: (§1) The compounds of the invention were evaluated against several β-lactamresistant bacteria strains by determining the minimum inhibitory concentration (MIC, μg/ml) of each compound with respect to each strain. The MIC, the lowest concentration of antibiotic which inhibits growth of the test organism, was determined by the agar dilution method.
(§2) To determine the MIC for bacterial isolates, the test compound was incorporated in a series of two-fold dilutions into liquified Mueller-Hinton agar. Upon solidification, a number of different bacterial strains were spot inoculated with a replicating device onto the agar surface. […] The procedures used in these studies have been standardized by the National Committee for Clinical Laboratory Standards (NCCLS), as per the NCCLS publication entitled METHODS FOR DILUTION ANTIMICROBIAL SUSCEPTIBILITY TESTS (1991), which is incorporated herein by reference.
(§3) Aliquots of antimicrobial agents were prepared in phosphate buffered saline (PBS) at pH 7.2. Tween 20 or DMSO was used as a solubilizing vehicle as needed. Standard methods of vortexing, sonicating and gentle heat were used to facilitate solubilizing the test agent. Typically, the concentration of the stock solution was 10× that of the highest drug concentration tested. A 1.28 mg/mL stock solution was used with a subsequent highest working concentration of 128 μg/mL. Serial two-fold dilutions were done through ≤0.25 μg/mL. Each drug level was tested in duplicate. Two-fold drug dilutions were done in sterile 50 mL tubes with a final drug volume of 5 mL. Upon the addition of 45 mL of molten agar, a 10-fold dilution resulted. Two, 25 mL. plates were then poured into 15×150 mm square Petri plates with grids and allowed to harden.
(§4) A control plate with a reference drug, either cefotaxime, vancomycin or imipenem, was used as the positive growth control. Stock concentrations of reference antibiotics were prepared and frozen at -80° C. Upon preparation, the control plates were sealed and stored in the refrigerator for up to 1 week prior to use; however, imipenem control plates had to be prepared just prior to use. All test plates were used within 24 hours of preparation.
(§5) Satisfactory results were obtained where the inoculum contained about 10^4 colony forming units (cfu) ±0.5 logs. Starting with pure cultures of the test isolates on agar plates, a few isolated colonies were transferred to a tube of nutrient broth and allowed to grow 4-6 hours at 35°-36° C. to reach log-phase growth. Dropwise addition of the broth culture to PBS was done to match a 0.5 McFarland turbidity standard equal to 10^8 cfu/mL. This was further diluted ten-fold in PBS to reach a working inoculum concentration of 10^7 cfu/mL. When 1 μL of the working inoculum was applied to the agar surface a concentration of about 10^4 cfu per spot was obtained.
(§6) Disposable sterile 1 μL loops were used to inoculate test plates, with each isolate in a designated grid on the agar plate. An alternate method of inoculation involved the use of a replica plater, a device with 48 steel pins allowing the simultaneous inoculation of multiple isolates. After the spots had dried, the plates were incubated at 35°-36° C. for 16-20 hours. Endpoints were assessed as the minimum inhibitory concentration (MIC) of antimicrobial agent.

[2] = system: E. faecalis ATCC 29212; test: In vitro antibacterial evaluation, MIC by agar dilution, E. faecalis ATCC 29212; details: Enterococcus faecalis, ATCC29212; E. faecalis ATCC 29212; read-out: MIC
Experimental: as §1, §2, §3, §4, §5, §6

[3] = system: S. haemolyticus (Meth^R); test: In vitro antibacterial evaluation, MIC by agar dilution, S. haemolyticus; details: Staphylococcus haemolyticus, read-out: MIC
Experimental: as §1, §2, §3, §4, §5, §6

[4] = system: E. faecium ATCC 35667; test: In vitro antibacterial evaluation, MIC by agar dilution, E. faecium ATCC 35667; details: Enterococcus faecium, ATCC35667, read-out: MIC
Experimental: as §1, §2, §3, §4, §5, §6

[5] = system: E. coli ATCC 25922; test: In vitro antibacterial evaluation, MIC by agar dilution, E. coli ATCC 25922; details: Escherichia coli, ATCC25922, read-out: MIC
Experimental: as §1, §2, §3, §4, §5, §6

[6] = system: P. aeruginosa ATCC 27853; test: In vitro antibacterial evaluation, MIC by agar dilution, P. aeruginosa ATCC 27853; details: Pseudomonas aeruginosa, ATCC27853, read-out: MIC
Experimental: as §1, §2, §3, §4, §5, §6

[7] = system: S. aureus Col8A (Meth^S)(lac^-); test: In vitro antibacterial evaluation, MIC by agar dilution, S. aureus Col8A; details: Staphylococcus aureus
Experimental: as §1, §2, §3, §4, §5, §6
The novel agents of this invention are notable for their enhanced activity against S. aureus Col and Enterococci (E. faecium and E. faecalis). The S. aureus Col strain is a high-level PBP2a producer, whereas S. aureus Col 8A, its isogenic partner, lacks PBP2a. […] Thus, the compounds of the present invention are effective against PBP2a-producing bacteria.

[8] = system: S. aureus 76 (Meth^R)(lac^+); test: In vitro antibacterial evaluation, MIC by agar dilution, S. aureus 76; details: Staphylococcus aureus, read-out: MIC
Experimental: as §1, §2, §3, §4, §5, §6

[9] = S. aureus ATCC 29213, read-out: MIC

| SMILES | MIC [1, 9] [µg/mL] | MIC [2] [µg/mL] | MIC [3] [µg/mL] | MIC [4] [µg/mL] | MIC [5] [µg/mL] | MIC [6] [µg/mL] | MIC [7] [µg/mL] | MIC [8] [µg/mL] | MIC [1] [µg/mL] |
| --- | --- | --- | --- | --- | --- | --- | --- | --- | --- |
| N#Cc1ccccc1SC1=C(C(=O)O)N2C(=O)[C@@H](NC(=O)/C(=N\OC3CCCC3)c3csc(N)n3)[C@H]2SC1 [Cmpd 53, (7R)-7-[(Z)-2-(aminothiazol-4-yl)-2-(cyclopentyloxyimino)acetamido]-3-(2-cyanophenylthio)-3-cephem-4-carboxylic acid] | 1 (≈ 1.75 µM) | 8 (≈ 14 µM) | 8 (≈ 14 µM) | 8 (≈ 14 µM) | 1 (≈ 1.75 µM) | 8 (≈ 14 µM) | 1 (≈ 1.75 µM) | 8 (≈ 14 µM) | – |
| CC(=O)NC(=N)SCc1ccccc1SC1=C(C(=O)O)N2C(=O)[C@@H](NC(=O)Cc3ccccc3)[C@H]2SC1 [Cmpd 78, (7R)-7-[(Phenylacetyl)amino]-3-(2-N-acetylamidinothiomethylphenylthio)-3-cephem-4-carboxylic acid] | – | 4 (≈ 7.19 µM) | > 32 | 4 (≈ 7.19 µM) | > 32 | > 32 | 0.25 (≈ 0.449 µM) | 16 (≈ 28.7 µM) | 0.25 (≈ 0.449 µM) |
| N=C(NC1CC1)SCc1ccccc1SC1=C(C(=O)O)N2C(=O)[C@@H](NC(=O)Cc3ccccc3)[C@H]2SC1 [Cmpd 79, (7R)-7-[(Phenylacetyl)amino]-3-(2-N-cyclopropylisothiouroniummethylphenylthio)-3-cephem-4-carboxylate, inner salt] | 0.06 | 1 | 32 | 2 | > 32 | > 32 | 0.06 | 8 | – |
| N=C(N)SCc1cccc(SC2=C(C(=O)O)N3C(=O)[C@@H](NC(=O)Cc4ccccc4)[C@H]3SC2)c1 [Cmpd 80, (7R)-7-[(Phenylacetyl)amino]-3-(3-isothiouroniummethylphenylthio)-3-cephem-4-carboxylate, inner salt] | < 0.06 | 1 | 8 | 2 | 16 | > 32 | < 0.06 | 8 | – |
| Nc1nc(/C(=N/OC2CCCC2)C(=O)N[C@@H]2C(=O)N3C(C(=O)O)=C(Sc4cccnc4-c4ccccc4)CS[C@H]23)cs1 [Cmpd 86, (7R)-7-[(Z)-2-(aminothiazol-4-yl)-2-(cyclopentyloxyimino)acetamido]-3-(2-phenylpyridin-3-ylthio)-3-cephem-4-carboxylic acid] | 1 (≈ 1.61 µM) | 4 (≈ 6.42 µM) | 16 (≈ 25.7 µM) | 2 (≈ 3.21 µM) | 2 (≈ 3.21 µM) | 32 (≈ 51.4 µM) | 1 (≈ 1.61 µM) | 16 (≈ 25.7 µM) | – |
| NCc1ccccc1CC(=O)N[C@@H]1C(=O)N2C(C(=O)O)=C(Sc3ccnn3-c3ccccc3)CS[C@H]12 [Cmpd 96, (7R)-7-[((2-aminomethylphenyl)acetyl)amino]-3-(1-N-phenylpyrazol-5-ylthio)-3-cephem-4-carboxylic acid] | 0.25 (≈ 0.479 µM) | 1 (≈ 1.92 µM) | 16 (≈ 30.7 µM) | 4 (≈ 7.67 µM) | > 32 | > 32 | 0.5 (≈ 0.959 µM) | 16 (≈ 30.7 µM) | – |
| Nc1nc(/C(=N/OCCF)C(=O)N[C@@H]2C(=O)N3C(C(=O)O)=C(Sc4ccnn4-c4ccccc4)CS[C@H]23)c(Cl)s1 [Cmpd 98, (7R)-7-[(Z)-2-(2-amino-5-chlorothiazol-4-yl)-2-(2-fluoroethyloxyimino)acetamido]-3-(1-N-phenylpyrazol-5-ylthio)-3-cephem-4-carboxylic acid] | 0.5 (≈ 0.801 µM) | 1 (≈ 1.6 µM) | 8 (≈ 12.8 µM) | 4 (≈ 6.41 µM) | 8 (≈ 12.8 µM) | 16 (≈ 25.6 µM) | – | 8 (≈ 12.8 µM) | – |
| N=C(N)SCc1ccccc1SC1=C(C(=O)O)N2C(=O)[C@@H](NC(=O)Cc3ccc(O)cc3)[C@H]2SC1 [Cmpd 99, (7R)-7-[((4-Hydroxyphenyl)acetyl)amino]-3-(2-isothiouroniummethylphenylthio)-3-cephem-4-carboxylic acid, inner salt] | 0.125 | 1 | 16 | 1 | > 32 | > 32 | – | 16 | – |
| N=C(N)SCCc1ccccc1SC1=C(C(=O)O)N2C(=O)[C@@H](NC(=O)Cc3ccccc3)[C@H]2SC1 [Cmpd 100, (7R)-7-[(Phenylacetyl)amino]-3-(2-(2-isothiouronium)ethylphenylthio)-3-cephem-4-carboxylate, inner salt] | < 0.06 | 1 | 16 | 4 | > 32 | > 32 | – | 8 | – |
| O=C(Cc1ccccc1)N[C@@H]1C(=O)N2C(C(=O)O)=C(Sc3ccnn3-c3ccccn3)CS[C@H]12 [Cmpd 105, (7R)-7-[(Phenylacetyl)amino]-3-(1-N-(pyridin-2-yl)pyrazol-5-ylthio)-3-cephem-4-carboxylic acid] | – | 1 (≈ 2.03 µM) | 32 (≈ 64.8 µM) | 2 (≈ 4.05 µM) | > 32 | > 32 | 0.25 (≈ 0.507 µM) | 16 (≈ 32.4 µM) | 0.25 (≈ 0.507 µM) |
| O=C(COc1ccccc1)N[C@@H]1C(=O)N2C(C(=O)O)=C(Sc3ccnn3-c3ccccc3)CS[C@H]12 [Cmpd 112, (7R)-7-[(phenyloxyacetyl)amino]-3-(1-N-phenylpyrazol-5-ylthio) -3-cephem-4-carboxylic acid] | – | 4 (≈ 7.87 µM) | 32 (≈ 62.9 µM) | 4 (≈ 7.87 µM) | > 32 | > 32 | – | 16 (≈ 31.5 µM) | – |
| CSCC(=O)N[C@@H]1C(=O)N2C(C(=O)O)=C(Sc3ccccc3CSC(=N)NC(=N)N)CS[C@H]12 [Cmpd 126, (7R)-7-[(methylthioacetyl)amino]-3-(2-(N-amidino)isothiouroniummethylphenylthio)-3-cephem-4-carboxylate, inner salt] | – | 1 | – | 2 | > 32 | > 32 | 0.125 | 16 | 0.125 |
| N=C(N)NCc1ccccc1SC1=C(C(=O)O)N2C(=O)[C@@H](NC(=O)Cc3ccccc3)[C@H]2SC1 [Cmpd 128, (7R)-7-[(Phenylacetyl)amino]-3-(2-guanidiniummethylphenylthio)-3-cephem-4-carboxylate, inner salt] | ≤ 0.06 | 2 | – | 2 | > 32 | > 32 | ≤ 0.06 | 16 | – |
| N=C(N)SCc1ccccc1SC1=C(C(=O)O)N2C(=O)[C@@H](NC(=O)/C(=N\O)c3csc(N)n3)[C@H]2SC1 [Cmpd 129, (7R)-7-[(Z)-2-(Aminothiazol-4-yl)-2-(hydroxyimino)acetamido]-3-(2-isothiouroniummethylphenylthio)-3-cephem-4-carboxylate, inner salt] | ≤ 0.06 | 0.25 | 16 | – | 2 | > 32 | ≤ 0.06 | 8 | – |
| N=C(N)SCc1ccccc1SC1=C(C(=O)O)N2C(=O)[C@@H](NC(=O)/C(=N\O)c3ccccc3)[C@H]2SC1 [Cmpd 136, (7R)-7-[(Z)-2-(Phenyl)-2-(hydroxyimino)acetamido]-3-(2-isothiouroniummethylphenylthio)-3-cephem-4-carboxylate, inner salt] | 0.125 | 0.5 | 4 | 1 | > 32 | > 32 | – | 4 | – |
